Consider 73 compounds from patent US10039283B2, “Substituted pyrazolyl-nicotin(thio)amide derivatives and their use as fungicides” (BAYER CROPSCIENCE AKTIENGESELLSCHAFT, priority 2014, dated 2018).

Molecules are shown by their SMILES.

A short description of this data set: Log P by HPLC on reversed phase, method [a], acidic range (0.1% formic acid). The data set is classed as physicochemical. The settings on record: LC-UV, 0.1% formic acid in water and acetonitrile.
Take `Cc1c(NC(=O)c2cccnc2C(F)F)cnn1-c1cccc(C(F)(F)F)c1` [Example 113]: the LogP is 2.48^[a].
The figure for `Cc1c(NC(=O)c2cccnc2C(F)F)cnn1-c1ccc(C(F)(F)F)cc1` [Example 114] is 2.53^[a].
The figure for `Cc1ccccc1-n1ncc(NC(=O)c2cccnc2C(F)F)c1C` [Example 115] is 1.93^[a]; for `Cc1cccc(-n2ncc(NC(=O)c3cccnc3C(F)F)c2C(C)C)c1` [Example 116] it is 2.50^[a].
For `CCc1c(NC(=O)c2cccnc2C(F)F)cnn1-c1cccc(C(F)(F)F)c1` [Example 117] the value was 2.69^[a]; for `CCc1c(NC(=O)c2cccnc2C(F)F)cnn1-c1ccc(C(F)(F)F)cc1` [Example 118], 2.76^[a].
Take `CCc1c(NC(=O)c2cccnc2C(F)F)cnn1-c1ccccc1` [Example 119]: the LogP was 2.01^[a].
Regarding `CC(C)c1c(NC(=O)c2cccnc2C(F)F)cnn1-c1ccccc1` [Example 120], the LogP was 2.15^[a].
`CCCc1c(NC(=O)c2cccnc2C(F)F)cnn1-c1ccccc1` [Example 121]: the LogP was 2.28^[a].
For `CCCCn1ncc(NC(=O)c2cccnc2C(F)F)c1CC` [Example 122] the value was 2.00^[a]; for `CCCCn1ncc(NC(=O)c2cccnc2C(F)F)c1C(C)C` [Example 123], 2.18^[a]; for `CCc1c(NC(=O)c2cccnc2C(F)F)cnn1CCC(C)C` [Example 124], 2.32^[a].
The figure for `CC(C)CCn1ncc(NC(=O)c2cccnc2C(F)F)c1C(C)C` [Example 125] is 2.53^[a].
Consider `CCC(C)n1ncc(NC(=O)c2cccnc2C(F)F)c1C` (stereo not shown) [Example 126], for which the LogP is 1.63^[a].
The figure for `CCc1c(NC(=O)c2cccnc2C(F)F)cnn1C(CC)CC` [Example 127] is 2.20^[a]; for `O=C(Nc1cnn(-c2ccc(F)cc2)c1-c1cccc(Cl)c1)c1cccnc1C(F)F` [Example 128] it is 2.92^[a]; for `O=C(Nc1cnn(-c2ccccc2C(F)(F)F)c1-c1ccccc1)c1cccnc1C(F)F` [Example 129] it is 2.70^[a].
Consider `O=C(Nc1cnn(-c2ccccc2C(F)(F)F)c1-c1ccc(F)cc1)c1cccnc1C(F)F` [Example 130], for which the LogP is 2.80^[a].
The figure for `O=C(Nc1cnn(-c2ccccc2C(F)(F)F)c1-c1cccc(F)c1)c1cccnc1C(F)F` [Example 131] is 2.80^[a]; for `O=C(Nc1cnn(-c2ccccc2C(F)(F)F)c1-c1ccc(Cl)cc1)c1cccnc1C(F)F` [Example 132] it is 3.04^[a]; for `Cc1cnc(C(F)F)c(C(=O)Nc2cnn(-c3ccc(Br)cc3)c2C)c1` [Example 133] it is 2.59^[a].
The figure for `Cc1c(NC(=O)c2cccnc2C(F)F)cnn1-c1ccc(Br)cc1` [Example 134] is 2.34^[a].
For `O=C(Nc1cnn(-c2ccccc2)c1Br)c1cccnc1C(F)F` [Example 135] the value was 2.07^[a].
On to `COc1cnc(C(F)F)c(C(=O)Nc2cnn(-c3ccc(Cl)c(Cl)c3)c2C(F)(F)F)c1` [Example 136], for which the LogP is 3.76^[a].
Turning to `O=C(Nc1cnn(-c2ccccc2)c1Cl)c1cccnc1C(F)F` [Example 137], the LogP is 2.07^[a].
Regarding `Cc1cnc(C(F)F)c(C(=O)Nc2cnn(-c3cccc(Cl)c3)c2C(F)(F)F)c1` [Example 138], the LogP was 3.25^[a].
For `Cc1cnc(C(F)F)c(C(=O)Nc2cnn(-c3cccc(C(F)(F)F)c3)c2C(F)(F)F)c1` [Example 139] the value was 3.39^[a].
Regarding `Cc1cnc(C(F)F)c(C(=O)Nc2cnn(-c3ccccc3F)c2C(F)(F)F)c1` [Example 140], the LogP is 2.77^[a].
For `Cc1cnc(C(F)F)c(C(=O)Nc2cnn(-c3ccc(F)cc3)c2C(F)(F)F)c1` [Example 141] the value was 2.86^[a].
For `Cc1cnc(C(F)F)c(C(=O)Nc2cnn(-c3ccc(C(C)C)cc3)c2C(F)(F)F)c1` [Example 142] the value was 3.78^[a]; for `N#Cc1c(NC(=O)c2cccnc2C(F)F)cnn1-c1ccccc1` [Example 143], 2.28^[a].
The figure for `O=C(Nc1cnn(-c2cccc(Cl)c2Cl)c1C(F)(F)F)c1ccc(Br)nc1C(F)F` [Example 144] is 3.80^[a]; for `O=C(Nc1cnn(-c2ccc(Cl)cc2)c1C(F)(F)F)c1ccc(Br)nc1C(F)F` [Example 145] it is 3.73^[a].
In the case of `O=C(Nc1cnn(-c2ccccc2F)c1-c1cccc(F)c1)c1cccnc1C(F)F` [Example 146], the LogP was 2.51^[a].
With `O=C(Nc1cnn(-c2ccccc2F)c1-c1ccc(F)cc1)c1cccnc1C(F)F` [Example 147], the LogP was 2.51^[a].
For `O=C(Nc1cnn(-c2ccccc2F)c1-c1ccccc1)c1cccnc1C(F)F` [Example 148] the value was 2.39^[a]; for `O=C(Nc1cnn(-c2ccccc2F)c1-c1ccc(Cl)cc1)c1cccnc1C(F)F` [Example 149], 2.73^[a].
As to `O=C(Nc1cnn(-c2ccc(Br)cc2)c1Br)c1cccnc1C(F)F` [Example 150], the LogP was 2.67^[a].
The figure for `O=C(Nc1cnn(-c2ccc(Br)cc2)c1Cl)c1cccnc1C(F)F` [Example 151] is 3.47^[a].
The figure for `COc1c(NC(=O)c2cccnc2C(F)F)cnn1-c1ccc(Br)cc1` [Example 152] is 2.40^[a]; for `O=C(Nc1cnn(-c2cccc(Cl)c2)c1Br)c1cccnc1C(F)F` [Example 153] it is 2.54^[a]; for `Cc1cccc(-n2ncc(NC(=O)c3cc(C)cnc3C(F)F)c2C(F)(F)F)c1` [Example 154] it is 2.96^[a].
The figure for `O=C(Nc1cnn(-c2cccc(Cl)c2)c1C(F)(F)F)c1ccc(Cl)nc1C(F)F` [Example 155] is 3.62^[a].
In the case of `Cc1cccc(-n2ncc(NC(=O)c3ccc(Cl)nc3C(F)F)c2C(F)(F)F)c1` [Example 156], the LogP is 3.33^[a].
With `Cc1ccc(-n2ncc(NC(=O)c3ccc(Cl)nc3C(F)F)c2C(F)(F)F)cc1` [Example 157], the LogP was 3.48^[a].
Take `O=C(Nc1cnn(-c2ccccc2F)c1C(F)(F)F)c1ccc(Cl)nc1C(F)F` [Example 158]: the LogP is 3.15^[a].
As for `CC(C)c1ccc(-n2ncc(NC(=O)c3ccc(Cl)nc3C(F)F)c2C(F)(F)F)cc1` [Example 159], the LogP is 4.13^[a].
The figure for `O=C(Nc1cnn(-c2c(Cl)cccc2Cl)c1C(F)(F)F)c1ccc(Cl)nc1C(F)F` [Example 160] is 3.53^[a].
As for `O=C(Nc1cnn(-c2cc(Cl)cc(Cl)c2)c1C(F)(F)F)c1ccc(Cl)nc1C(F)F` [Example 161], the LogP was 4.23^[a].
In the case of `O=C(Nc1cnn(-c2ccc(Cl)cc2Cl)c1C(F)(F)F)c1ccc(Cl)nc1C(F)F` [Example 162], the LogP is 3.85^[a].
The figure for `O=C(Nc1cnn(-c2cccc(Cl)c2Cl)c1C(F)(F)F)c1ccc(Cl)nc1C(F)F` [Example 163] is 3.71^[a]; for `N#Cc1c(NC(=O)c2ccc(Cl)nc2C(F)F)cnn1-c1ccccc1` [Example 164] it is 2.90^[a]; for `COc1cnc(C(F)F)c(C(=O)Nc2cnn(-c3cccc(Cl)c3Cl)c2C(F)(F)F)c1` [Example 165] it is 3.37^[a].
As for `Cc1cnc(C(F)F)c(C(=O)Nc2cnn(-c3ccccc3)c2C#N)c1` [Example 166], the LogP is 2.51^[a].
For `Cc1cnc(C(F)F)c(C(=O)Nc2cnn(-c3cccc(Cl)c3Cl)c2C(F)(F)F)c1` [Example 167] the value was 3.35^[a]; for `COc1cnc(C(F)F)c(C(=O)Nc2cnn(-c3ccc(Cl)cc3Cl)c2C(F)(F)F)c1` [Example 168], 3.53^[a]; for `COc1cnc(C(F)F)c(C(=O)Nc2cnn(-c3ccc(Cl)cc3)c2C(F)(F)F)c1` [Example 169], 3.29^[a].
The figure for `Cc1cnc(C(F)F)c(C(=O)Nc2cnn(Cc3ccccc3)c2C(F)(F)F)c1` [Example 170] is 2.95^[a].
For `Cc1cnc(C(F)F)c(C(=O)Nc2cnn(-c3c(Cl)cccc3Cl)c2C(F)(F)F)c1` [Example 171] the value was 3.16^[a]; for `O=C(Nc1cnn(-c2ccc(Cl)cc2Cl)c1C(F)(F)F)c1ccc(Br)nc1C(F)F` [Example 172], 3.96^[a].
Consider `O=C(Nc1cnn(Cc2ccccc2)c1C(F)(F)F)c1ccc(Cl)nc1C(F)F` [Example 173], for which the LogP is 3.33^[a].
The figure for `Cc1cnc(C(F)F)c(C(=O)Nc2cnn(-c3cc(Cl)cc(Cl)c3)c2C(F)(F)F)c1` [Example 174] is 3.89^[a]; for `Cc1cnc(C(F)F)c(C(=O)Nc2cnn(-c3cc(Cl)ccc3Cl)c2C(F)(F)F)c1` [Example 175] it is 3.39^[a]; for `O=C(Nc1cnn(-c2cc(Cl)ccc2Cl)c1C(F)(F)F)c1ccc(Cl)nc1C(F)F` [Example 176] it is 3.76^[a].
`COc1cnc(C(F)F)c(C(=O)Nc2cnn(-c3cc(Cl)ccc3Cl)c2C(F)(F)F)c1` [Example 177]: the LogP is 3.39^[a].
For `O=C(Nc1cnn(-c2cc(Cl)ccc2Cl)c1C(F)(F)F)c1ccc(Br)nc1C(F)F` [Example 178] the value was 3.85^[a]; for `Cc1cnc(C(F)F)c(C(=O)Nc2cnn(-c3ccc(Cl)c(Cl)c3)c2C(F)(F)F)c1` [Example 179], 3.76^[a]; for `O=C(Nc1cnn(-c2ccc(Cl)c(Cl)c2)c1C(F)(F)F)c1ccc(Cl)nc1C(F)F` [Example 180], 4.11^[a].
On to `O=C(Nc1cnn(-c2ccc(Cl)c(Cl)c2)c1C(F)(F)F)c1ccc(Br)nc1C(F)F` [Example 181], for which the LogP is 4.19^[a].
Turning to `O=C(Nc1cnn(-c2ccc(C(F)(F)F)cc2)c1-c1ccc(Cl)cc1)c1cccnc1C(F)F` [Example 182], the LogP was 3.55^[a].
Regarding `O=C(Nc1cnn(-c2ccc(Cl)cc2)c1Cl)c1cccnc1C(F)F` [Example 183], the LogP was 2.55^[a].
For `O=C(Nc1cnn(-c2ccc(C(F)(F)F)cc2)c1-c1ccc(F)cc1)c1cccnc1C(F)F` [Example 184] the value was 3.31^[a]; for `O=C(Nc1cnn(-c2ccc(C(F)(F)F)cc2)c1-c1cccc(F)c1)c1cccnc1C(F)F` [Example 185], 3.31^[a].
